For this experiment, the target named is recombinant RORγ Ligand Binding Domain (LBD) protein (Homo sapiens (Human), UniProt P51449). The experiment is described as follows: Radio-Ligand RORγ Binding Assay (Assay 1). As to conditions: radio-ligand 25-hydroxy [26,27-3H]-cholesterol competition. How it is done: Radio-Ligand RORγ Binding Assay (Assay 1)
Compounds described herein were tested for ability to bind to RORγ in a cell-free competition assay with commercially available radio-ligand (RL), 25-hydroxy [26,27-^3H]-cholesterol (PerkinElmer, Cat. # NET674250UC), for a ligand binding site on a recombinant RORγ Ligand Binding Domain (LBD) protein expressed as a 6×His-Glutathione-S-Transferase (GST) fusion. […] The plate was shaken at 700 rpm for 20 min and incubated for 10 min at rt, after which 40 μL of poly-Lys YSi SPA beads (PerkinElmer, Cat. # RPNQ0010) were added to achieve 50 μg of the beads per well. The plate was incubated on an orbital shaker for 20 min and then for 10 min without agitation at rt. SPA signal for tritium beta radiation was registered on PerkinElmer Microbeta plate reader. […] The percent inhibition vs. concentration data were fit into a four-parameter model, and IC50 values were calculated from the fit as the concentrations corresponding to the inflection points on the dose-response curves. […]

As usually defined, the Ki is the dissociation constant of the complex between target and ligand, obtained from inhibition or displacement.

Sequence of recombinant RORγ Ligand Binding Domain (LBD) protein (P51449 269-508): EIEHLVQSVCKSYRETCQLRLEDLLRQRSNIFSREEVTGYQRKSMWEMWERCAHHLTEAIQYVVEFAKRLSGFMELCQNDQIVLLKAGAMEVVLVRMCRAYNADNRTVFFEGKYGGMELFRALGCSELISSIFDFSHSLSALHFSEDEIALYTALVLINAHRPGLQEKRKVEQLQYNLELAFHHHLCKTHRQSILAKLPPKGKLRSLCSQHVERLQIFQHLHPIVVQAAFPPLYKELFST

For `C=C(C)Cn1c(Cc2ccc(C(F)(F)F)cc2)cc2cc(C(=O)NCc3ccc(S(=O)(=O)CC)cc3)cnc21` [AI-3, N-(4-(ethylsulfonyl)benzyl)-1-(2-methylallyl)-2-(4-(trifluoromethyl)benzyl)-1H-pyrrolo[2,3-b]pyridine-5-carboxamide], the inhibitory constant (Ki) was less than 100 nM.

With `CCS(=O)(=O)c1ccc(CC(=O)Nc2ccc3c(c2)nc(Cc2ccc(C(F)(F)F)cc2)n3CC(C)C)cc1` [BE-68, 2-(4-(ethylsulfonyl)phenyl)-N-(1-isobutyl-2-(4-(trifluoromethyl)benzyl)-1H-benzo[d]imidazol-5-yl)acetamide], the Ki is less than 100 nM.

On to `CCS(=O)(=O)c1ccc(CNC(=O)c2cc(Br)c3c(c2)nc(C[C@H]2CC[C@H](C(F)(F)F)CC2)n3C)cc1` [BE-58, 7-bromo-N-(4-(ethylsulfonyl)benzyl)-1-methyl-2-(((1r,4r)-4-(trifluoromethyl)cyclohexyl)methyl)-1H-benzo[d]imidazole-5-carboxamide], for which the Ki was 100 to 1000 nM.

As for `CCn1c(Cc2ccc(OC(F)F)cc2)cc2cc(C(=O)N[C@@H](CO)c3ccc(S(=O)(=O)CC)cn3)ccc21` [IN-6, (R)-2-(4-(difluoromethoxy)benzyl)-1-ethyl-N-(1-(5-(ethylsulfonyl)pyridin-2-yl)-2-hydroxyethyl)-1H-indole-5-carboxamide], the inhibitory constant (Ki) is less than 100 nM.

On to `CCn1c(Cc2cccc(OC(F)F)c2)cc2cc(C(=O)N[C@@H](CO)c3ccc(S(=O)(=O)CC)cn3)ccc21` [IN-7, (R)-2-(3-(difluoromethoxy)benzyl)-1-ethyl-N-(1-(5-(ethylsulfonyl)pyridin-2-yl)-2-hydroxyethyl)-1H-indole-5-carboxamide], for which the Ki is less than 100 nM.

Regarding `CCn1c(Oc2ccc(C(F)(F)F)cc2)nc2cc(C(=O)N[C@@H](CN(C)C)c3ccc(S(=O)(=O)CC)cc3)ccc21` [BE-10, (R)-N-(2-(dimethylamino)-1-(4-(ethylsulfonyl)phenyl)ethyl)-1-ethyl-2-(4-(trifluoromethyl)phenoxy)-1H-benzo[d]imidazole-5-carboxamide], the Ki was 100 to 1000 nM.

With `CCn1c(CC2CCC(C(F)(F)F)OC2)nc2cc(C(=O)NCc3ccc(S(=O)(=O)CC)cc3)ccc21` (single isomer, unassigned) [BE-56.3, 1-ethyl-N-(4-(ethylsulfonyl)benzyl)-2-((6-(trifluoromethyl)tetrahydro-2H-pyran-3-yl)methyl)-1H-benzo[d]imidazole-5-carboxamide], the Ki is 100 to 1000 nM.

Regarding `CCn1c(CC2CCC(C(F)(F)F)OC2)nc2cc(C(=O)NCc3ccc(S(=O)(=O)CC)cc3)ccc21` (single isomer, unassigned) [BE-56.2, 1-ethyl-N-(4-(ethylsulfonyl)benzyl)-2-((6-(trifluoromethyl)tetrahydro-2H-pyran-3-yl)methyl)-1H-benzo[d]imidazole-5-carboxamide], the Ki lay in the range of 100 to 1000 nM.

As for `CCS(=O)(=O)c1ccc(C(C)NC(=O)c2ccc3c(c2)nc(Cc2ccc(C(F)(F)F)cc2)n3CC(C)C)cc1` (single isomer, unassigned) [BE-45], the inhibition constant (Ki) was […].

Take `CCS(=O)(=O)c1ccc(CNC(=O)c2ccc3c(c2)nc(Cc2ccc(C(F)(F)F)cc2)n3CC(C)C)nc1` [BE-43, N-((5-(ethylsulfonyl)pyridin-2-yl)methyl)-1-isobutyl-2-(4-(trifluoromethyl)benzyl)-1H-benzo[d]imidazole-5-carboxamide]: the inhibition constant Ki is less than 100 nM.

For `CCS(=O)(=O)c1ccc(CNC(=O)c2ccc3c(c2)nc(Cc2ccc(C(F)(F)F)cc2)n3C2CCC2)cc1` [BE-38, 1-cyclobutyl-N-(4-(ethylsulfonyl)benzyl)-2-(4-(trifluoromethyl)benzyl)-1H-benzo[d]imidazole-5-carboxamide], the Ki is less than 100 nM.

Regarding `CCn1c(CC2CCC(C(F)(F)F)OC2)nc2cc(C(=O)NCc3ccc(S(=O)(=O)CC)cc3)ccc21` (single isomer, unassigned) [BE-56.1, 1-ethyl-N-(4-(ethylsulfonyl)benzyl)-2-((6-(trifluoromethyl)tetrahydro-2H-pyran-3-yl)methyl)-1H-benzo[d]imidazole-5-carboxamide], the inhibition constant Ki lay within 100 to 1000 nM.

These data come from patent publication US10301261B2, “Substituted indoles as modulators of ROR-gamma” (Vitae Pharmaceuticals, LLC, priority 2015, dated 2019).
